{"source": "patent US8703715B2", "about": "“Methods for inhibiting growth of prolactin-responsive cancer cells with cyclosporine a or other cyclophilin inhibitors” (The Trustees of the University of Pennsylvania, priority 2004, dated 2014)", "key": {"[1]": {"conditions": "human patients, approved indications (immunosuppressive use); cited from earlier work"}, "breast cancer cells": {"tested_on": "breast cancer cells", "conditions": "breast cancer cells in culture"}}}
{"substance": "cyclosporine A", "values": [{"measurement": "Peak serum concentrations", "setting": "[1]", "result": "2 to 8", "unit": "µg/mL"}, {"measurement": "media concentration having profound effects on survival of breast cancer cells", "setting": "breast cancer cells", "result": "≥ 20", "unit": "ng/mL"}]}
